Measurements from US20120010177A1, “MicroRNA Modulators and Method for Identifying And Using The Same” (The Wistar Institute / North Carolina State University, priority 2008, published 2012).
Read-outs that look alike come from different tables or passages of the source.

System: miR-21
Test: High throughput primary miR-21 FLuc reporter assay (concentration-response)
Format: cell-based, human
Procedure, shortened: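 HeLa cells carrying a Luc-miR-21 firefly luciferase reporter were treated with compound for 48 h. miR-21 inhibition was read as increased luciferase signal. Concentration-response data were fitted with a four-parameter logistic model.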

[1] = Homo sapiens, Table 12 singletons, read-out: AC50
[2] = Table 12 singletons, read-out: AC50

Row | Compound | AC50 [1] [µM] | further results
1 | NC(=O)COC(=O)c1ccc2noc(-c3ccccc3)c2c1 [Compound 274] | 6.56 | 
2 | N#CC1=C(SCC(=O)Nc2ccccc2)NC(=O)CC1c1ccc(O)cc1 (stereo not shown) [Compound 275] | 6.56 | 
3 | Oc1csc(Cc2nc(-c3ccccc3F)cs2)n1 [Compound 276] | 6.56 | 
4 | CSc1ccc(-c2cccc([N+](=O)[O-])c2)nn1 [Compound 277] | 6.56 | 
5 | COc1ccc(C2CC(C)(c3ccc(OC)cc3)Nc3ccccc3N2)cc1 (stereo not shown) [Compound 278] | 7.36 | 
6 | COc1cc(O)sc1/C=N/c1ccc(Cl)cc1 [Compound 279] | 7.36 | 
7 | O=C(CN1c2ccc(Br)cc2-c2ccccc2S1(=O)=O)N1CCCCC1 [Compound 280] | 7.36 | 
8 | C[C@]12CC[C@H]3C(=CCc4cc(O)ccc43)[C@@H]1CCC2=O [Compound 281] | 7.36 | 
9 | CN(C)c1ccc(-n2cccc2/C=N/n2cnnc2)cc1 [Compound 282] | 8.26 | 
10 | Cn1nc(NC(=O)C(F)(F)F)c2ncc(-c3ccc(Cl)cc3)nc21 [Compound 283] | 9.27 | 
11 | NC1=NC(=O)/C(=C/c2cn(Cc3ccccc3)c3ccccc23)S1 [Compound 284] | 9.27 | 
12 | CCCCC12CN3CCN(CC(C3)/C1=N/NC(=O)c1ccccc1N)C2 [Compound 285] | 9.27 | 
13 | COP(=O)(OC)C(Nc1ccc(C)cc1)c1ccc([N+](=O)[O-])cc1 (stereo not shown) [Compound 286] |  | AC50 (Homo sapiens): 10.4 µM
14 | COc1ccc(/C=C/C(=O)NC2CCCCCC2)cc1S(=O)(=O)N1CCOCC1 [Compound 287] | 10.4 | 
15 | CCC(=O)Oc1ccc(NC(=O)CSCc2ccccc2)cc1 [Compound 288] | 11.7 | 
16 | COc1ccc(C(CC(=O)Nc2ccc(C(C)=O)cc2)N2Cc3ccccc3C2=O)cc1 (stereo not shown) [Compound 289] | 11.7 | 
17 | CNc1cc([N+](=O)[O-])ccc1/N=C/C=C(\O)c1cccs1 [Compound 290] | 11.7 | 
18 | CCc1ccc(NC(=O)NCCCN2CCCC2=O)cc1 [Compound 291] | 11.7 | 
19 | Cn1nc(NC(=O)C(F)(F)F)c2ncc(-c3ccc(Cl)cc3)nc21 [Compound 292] |  | AC50 [2]: 13.1 µM
20 | CCOC(=O)c1s/c(=N/C(=O)c2c(F)cccc2F)n(C)c1C [Compound 293] | 13.1 | 
21 | O=c1c(=Nc2ccccc2O)c(=O)c2ccccc12 [Compound 294] | 13.1 | 
22 | CC1(C)Cc2nc3oc4c(S)ncnc4c3cc2CO1 [Compound 295] | 13.1 | 
23 | Cc1nc2ccc(/N=C(\S)N3CCC(C)CC3)cc2nc1C [Compound 296] | 13.1 | 

Row | Compound | AC50 [1] [µM] | further results
24 | Cc1ccc2nc(C)c(/C=C/C(=O)c3ccco3)cc2c1 [Compound 297] | 14.7 | 
25 | O=C(c1ccc(COCC(F)(F)F)cc1)N1CCN(c2ccccn2)CC1 [Compound 298] | 14.7 | 
26 | Nc1ccc2c(c1)Cc1cc([N+](=O)[O-])ccc1-2 [Compound 299] | 14.7 | 
27 | CC(C)N1C(=O)CN(C2CCCCCC2)C(=O)C1c1ccccc1F (stereo not shown) [Compound 301] | 14.7 | 
28 | CC(/C=C/c1ccccc1)=N\N/C(S)=N/C(C)C [Compound 302] | 14.7 | 
29 | CCOc1cccc(OCCOc2ccccc2[N+](=O)[O-])c1 [Compound 303] | 14.7 | 
30 | Cc1ccc(/N=C(/c2cccs2)N2CCOCC2)cc1 [Compound 304] | 14.7 | 
31 | Cc1ccc2c(c1)NCC(C(=O)NC1CCC(C)CC1)O2 (stereo not shown) [Compound 305] | 14.7 | 
32 | CCN(CC)C(=O)CS/C(=N/C#N)Nc1ccccc1F [Compound 306] | 14.7 | 
33 | CCc1cccc(CC)c1N(COC)C(=O)Cn1c(CC)nc2ccccc21 [Compound 307] | 14.7 | 
34 | CC(C)(C)c1ccc(CN2C(=O)c3ccccc3S2(=O)=O)cc1 [Compound 308] | 14.7 | 
35 | CCn1c(=O)c(C(=O)Nc2ccccc2S(N)(=O)=O)c(O)c2ccccc21 [Compound 309] | 14.7 | 
36 | COc1ccc(-c2nn3c(-c4ccccc4)nnc3s2)cc1OC [Compound 310] | 14.7 | 
37 | Cn1nc2c3ccccc3n(Cc3ccccc3)c2nc1=S [Compound 311] | 14.7 | 
38 | CC(=O)O[C@H]1C[C@@]2(C)[C@@H](C[C@@H](O)[C@H]3[C@@]4(C)CC[C@@H](O)[C@@H](C)C4CC[C@@]32C)/C1=C(\CCC=C(C)C)C(=O)O (stereo partly shown) [Compound 312] | 14.7 | 
39 | Cc1cc(CC(C)C)n(-c2nc3ccccc3c(=O)n2OCC(N)=O)n1 [Compound 313] | 14.7 | 
40 | c1csc(-c2nn3c(C4COc5ccccc5O4)nnc3s2)c1 (stereo not shown) [Compound 314] | 16.5 | 
41 | O=C(CC1NCCc2ccccc21)Nc1cccc(Cl)c1 (stereo not shown) [Compound 315] | 16.5 | 
42 | CNc1nc(C)c(C(=O)OCc2ccccc2)s1 [Compound 316] | 16.5 | 
43 | O=C(NC12CC3CC(CC(C3)C1)C2)N1CCN(C(=O)c2ccco2)CC1 [Compound 317] | 16.5 | 
44 | CCc1ccc(N2C(=O)Cc3c2nc(N)c(C#N)c3N)cc1 [Compound 318] | 16.5 | 
45 | CCCNC(=O)OCc1cccnc1Sc1ccc(C)cc1 [Compound 319] | 16.5 | 
46 | COC(=O)c1ccc(CN2C(=O)NC3(CCCCC3)C2=O)cc1 [Compound 320] | 16.5 | 

Row | Compound | AC50 [1] [µM] | further results
47 | O=c1n(Cc2ccccc2)nc2n1-c1ccccc1SC2 [Compound 321] | 16.5 | 
48 | CC(=O)N1N=C(c2ccc(C)cc2)OC1c1cccnc1 (stereo not shown) [Compound 322] | 16.5 | 
49 | Cc1cccc2c1-c1sc(C(=O)Nc3cccnc3)cc1CO2 [Compound 323, CC1═C/C═C\C2═C\1\C3═C(CO2)\C═C(/S3)C(═O)NC4═C/C═C\N═C\4] |  | Curve Class (Table 12 singletons, concentration-response curve class): −2.2; Efficacy (Table 12 singletons, negative values as printed): −70.23; AC50 [2]: 16.5 µM
50 | CCCCCc1nc2c(=O)n(C)c3ccccc3c2o1 [Compound 324] | 16.5 | 
51 | CN1CCN(/N=C/c2nc(-c3ccc(Cl)cc3)n3ccccc23)CC1 [Compound 325] | 16.5 | 
52 | C#CN/C(=N\CC=C)SCCc1ccccc1 [Compound 326] | 16.5 | 
53 | c1ccc(-c2nnc(CN3CCCCC3)o2)cc1 [Compound 327] | 16.5 | 
54 | O=c1c(NCc2cccs2)nccn1-c1ccc(F)cc1 [Compound 328] | 16.5 | 
55 | CCOC(=O)N1CCN(C(=O)CSCc2ccccc2Cl)CC1 [Compound 329] | 16.5 | 
56 | O=C(Nc1ccc(N2CCOCC2)cc1)c1cc(F)c(F)cc1Cl [Compound 330] | 16.5 | 
57 | CCC(C)NC(=O)c1ccc2c(c1)S(=O)(=O)c1ccccc1C2=O (stereo not shown) [Compound 331] | 16.5 | 
58 | CSc1c(C#N)c(N)c(C#N)c2c1COC(C)(C)C2 [Compound 332] | 18.5 | 
59 | CCOC(=O)Nc1ccc2c(c1)ncn2C1CCCCC1 [Compound 333] | 18.5 | 
60 | CC1Oc2ccccc2N(CC(=O)NCc2cccs2)C1=O (stereo not shown) [Compound 334] | 18.5 | 
61 | CCOC(=O)C1CCCN(Cc2cccc(Cl)c2)C1 (stereo not shown) [Compound 335] | 18.5 | 
62 | Nc1cccc(CCc2nc3ccccc3[nH]2)c1 [Compound 336] | 18.5 | 
63 | CC(=O)N(C)c1ccc(N/C(S)=N/c2cccc3ccccc23)cc1 [Compound 337] | 18.5 | 
64 | Cn1c(=N)n(CC(=O)C(C)(C)C)c2ccccc21 [Compound 338] | 18.5 | 
65 | O=C(NC1CCCCCC1)C1CCCN(c2ncccn2)C1 (stereo not shown) [Compound 339] | 18.5 | 
66 | COC(=O)C1C(=O)C=C(Nc2ccc(F)cc2F)CC1c1ccccc1 (stereo not shown) [Compound 340] | 18.5 | 
67 | CCN(CC)CCCNC(=O)CCC(=O)Nc1ccc2nc(N3CCC(C)CC3)cc(C)c2c1 [Compound 341] | 18.5 | 
68 | Cc1ccc(/C=N/NC(=O)NC2CCCCC2)o1 [Compound 342] | 18.5 | 
